pIC50: −log10 of the molar value.
What was measured:
[1] = target: DA D1 receptor (Rattus norvegicus, UniProt P18901); assay: biochemical; assay type: binding; details: rat striatal membranes, 3H-SCH 23390; read-out: Receptor Binding; IC50, D1 3H-SCH
[2] = target: T1, DA D2 receptors (Rattus norvegicus, UniProt P61169); assay: Inhibition of 3H-spiperone binding to DA D2 receptors in rat striatal membranes; details: rat striatal membranes, 3H-spiperone; read-out: Receptor Binding; IC50, D2 3H-Spi
T1 construct: DA D2 receptors in rat striatal membranes; from tissue; host or cells: rat striatal membranes
T1 sequence (P61169 whole entry): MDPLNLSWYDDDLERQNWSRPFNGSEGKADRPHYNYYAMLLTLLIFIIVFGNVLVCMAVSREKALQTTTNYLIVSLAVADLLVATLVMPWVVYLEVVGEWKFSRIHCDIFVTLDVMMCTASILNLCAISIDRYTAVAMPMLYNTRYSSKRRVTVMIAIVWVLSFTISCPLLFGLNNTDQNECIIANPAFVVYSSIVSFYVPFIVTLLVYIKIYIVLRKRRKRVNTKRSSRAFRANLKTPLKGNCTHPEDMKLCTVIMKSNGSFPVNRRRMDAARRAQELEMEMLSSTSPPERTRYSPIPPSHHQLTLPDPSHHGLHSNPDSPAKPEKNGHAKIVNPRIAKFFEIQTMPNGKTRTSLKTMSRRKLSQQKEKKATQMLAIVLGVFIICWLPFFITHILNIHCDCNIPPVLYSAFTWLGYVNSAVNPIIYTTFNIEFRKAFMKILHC

Chain of DA D1 receptor (P18901 whole entry): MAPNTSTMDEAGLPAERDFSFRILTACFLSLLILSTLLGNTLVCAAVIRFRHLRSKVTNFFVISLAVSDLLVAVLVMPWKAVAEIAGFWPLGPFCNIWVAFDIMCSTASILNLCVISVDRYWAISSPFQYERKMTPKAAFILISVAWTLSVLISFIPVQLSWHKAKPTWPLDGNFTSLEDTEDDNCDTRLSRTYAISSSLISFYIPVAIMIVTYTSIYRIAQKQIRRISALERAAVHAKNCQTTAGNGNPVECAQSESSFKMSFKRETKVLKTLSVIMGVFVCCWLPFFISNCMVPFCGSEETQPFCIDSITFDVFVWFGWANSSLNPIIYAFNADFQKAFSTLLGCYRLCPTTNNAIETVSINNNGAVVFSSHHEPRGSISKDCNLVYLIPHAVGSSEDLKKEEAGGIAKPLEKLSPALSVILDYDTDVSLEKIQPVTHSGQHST

pIC50 [1]	pIC50 [2]	Structure (SMILES)
7.30	7.48	C[C@@H]1CN([C@@H]2C[C@@H](c3ccc(F)cc3)c3ccc(C(F)(F)F)cc32)C[C@H](C)N1 (racemic) [Compound 27, (±)-Trans-4-[6-trifluoromethyl-3-(4-fluorophenyl)-2,3-dihydro-1H-inden-1-yl]-cis-2,6-dimethylpiperazine]
8.22	7.62	CN1CCN([C@@H]2C[C@@H](c3ccc(F)cc3)c3ccc(Cl)cc32)CC12CCCCC2 (racemic) [Compound 32, (±)-Trans-4-[6-chloro-3-(4-fluorophenyl)-2,3-dihydro-1H-inden-1-yl]-1-methyl-1,4-diazaspiro[5.5]undecan]
8.62	7.92	CC1CN([C@@H]2C[C@@H](c3ccc(F)cc3)c3ccc(Cl)cc32)CCN1C (mixture of isomers) [Compound 18, (±)-Trans-4-[6-chloro-3-(4-fluorophenyl)-2,3-dihydro-1H-inden-1-yl]-1,2-dimethylpiperazine]
9.09	8.55	CC1(C)CN([C@@H]2C[C@@H](c3ccsc3)c3ccc(Cl)cc32)CCN1CCO (racemic) [Compound 45, (±)-Trans-4-[6-chloro-3-(3-thienyl)-2,3-dihydro-1H-inden-1-yl]-2,2-dimethyl-1-piperazineethanol]
8.80	7.77	CC(C)N1CCN([C@@H]2C[C@@H](c3ccc(F)cc3)c3ccc(Cl)cc32)CC1C (mixture of isomers) [Compound 41, (±)-Trans-4-[6-chloro-3-(4-fluorophenyl)-2,3-dihydro-1H-inden-1-yl]-2-methyl-1-(2-propyl)piperazine]
9.00	8.52	CC1(C)CN([C@@H]2C[C@@H](c3ccc(F)cc3)c3ccc(Cl)cc32)CCN1CCO (racemic) [Compound 43, (±)-Trans-4-[6-chloro-3-(4-fluorophenyl)-2,3-dihydro-1H-inden-1-yl]-2,2-dimethyl-1-piperazineethanol]
8.74	8.30	CN1CCN([C@@H]2C[C@@H](c3ccsc3)c3ccc(Cl)cc32)CC12CCCC2 (racemic) [Compound 30, (±)-Trans-9-[6-chloro-3-(3-thienyl)-2,3-dihydro-1H-inden-1-yl]-6-methyl-6,9-diazaspiro[4.5]decane]
8.68	7.96	Fc1ccc([C@@H]2C[C@@H](N3CCN4CCCCC4C3)c3cc(Cl)ccc32)cc1 (mixture of isomers) [Compound 34, (±)-Trans-2-[6-chloro-3-(4-fluorophenyl)-2,3-dihydro-1H-inden-1-yl]-octahydropyrido[1,2-a]pyrazine]
7.52	5.96	OC1CCN2CCN(C3CC(c4ccc(F)cc4)c4ccc(F)cc43)CC2C1 (stereo not drawn) [Compound 35, 2-[6-fluoro-3-(4-fluorophenyl)-2,3-dihydro-1H-inden-1-yl]-octahydropyrido[1,2-a]-pyrazine-8-ol]
7.37	6.40	CC(C)C1CN([C@@H]2C[C@@H](c3ccc(F)cc3)c3ccc(Cl)cc32)CCN1C (relative stereo) [Compound 22, Trans-4-[6-chloro-3-(4-fluorophenyl)-2,3-dihydro-1H-inden-1-yl]-1-methyl-2-(2-propyl)piperazine]
8.06	7.42	CCC1(CC)CN([C@@H]2C[C@@H](c3ccc(F)cc3)c3ccc(Cl)cc32)CCN1C (racemic) [Compound 24, (±)-Trans-4-[6-chloro-3-(4-fluorophenyl)-2,3-dihydro-1H-inden-1-yl]-2,2-diethyl-1-methylpiperazine]

Structure (SMILES)	pIC50 [1]	pIC50 [2]
CC1(C)CN([C@@H]2C[C@@H](c3ccc(F)cc3)c3ccc(C(F)(F)F)cc32)CCN1 (racemic) [Compound 6, (±)-Trans-2,2-dimethyl-4-[6-trifluoromethyl-3-(4-fluorophenyl)-2,3-dihydro-1H-inden-1-yl]piperazine]	8.55	8.28

— patent US5807855A, “1-piperazino-1,2-dihydroindene derivatives” (priority 1992, dated 1998)
